# Assays:
# [1] = tested on: liver; assay: In vivo mRNA delivery, IVIS imaging of organs: liver; parameters: species or system mice; key to Organs with luminescence: liver: strong: Strong meant the luminescence intensity in that organ was relatively high, compared to other organs; weak: Weak meant the luminescence intensity in that organ was relatively low, compared to other organs; conditions: Table 17; mice, IVIS, 4-6 h after injection; intensity relative to other organs
# [2] = Stability of DNPs by DLS after storage at 5° C.; assay type: physicochemical; parameters: key to Original size distribution type (DLS curve) / Size distribution type (DLS curve): U: DLS curve showed unimodal size distribution; B: DLS curve showed bimodal size distribution; M: DLS curve showed multimodal size distribution
# Outline: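 DNPs in acetate buffer sized by DLS after storage at 5 °C. Stability ranked Excellent, Good or Not stable according to retention, shrinkage or growth of original size and narrowing or broadening of size distribution.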
# [3] = Dimensions (size, PDI) of DNPs co-assembled from IAJDs and Luc-mRNA by DLS; assay type: physicochemical
# Outline: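 IAJDs (80 mg/mL ethanol stock) rapidly injected into Luc-mRNA (4.0 mg/mL stock) diluted in 10 mM acetate buffer pH 4.0, then vortexed 5 s. Size and polydispersity of resulting DNPs measured by DLS (633 nm laser, 175° detection) at 23 °C.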
# [4] = after 75 days at 5° C., IAJD 4.0 mg/mL + Luc-mRNA 0.1 mg/mL, acetate buffer
# [5] = Table 16, DNPs from IAJD 4 mg/mL and Luc-mRNA 0.10 mg/mL by injection in acetate buffer (10 mM, pH 4.0)
# [6] = Table 17, DNPs used in vivo, IAJD 4 mg/mL, Luc-mRNA 0.10 mg/mL, acetate pH 4.0
structure (smiles),measurement,setting,value
"CCCCCCCCCCCCCCCOc1cc(COC(=O)CCCN2CCN(C)CC2)cc(OCCCCCCCCCCC)c1 [IAJD 118, 3-(Pentadecyloxy)-5-(undecyloxy)benzyl 4-(4-methylpiperazin-1-yl)butanoate]",Organs with luminescence: liver,[1],"liver (weak),"
same,pH Sample,"[2]; DNPs: IAJD 4.0 mg/mL + Luc-mRNA 0.1 mg/mL, injection in acetate buffer pH 4.00",4.43
same,Size distribution type (DLS curve),[2]; after 75 days at 5° C.,(B)
same,PDI,[2]; [4],0.262
same,"Size (d, nm)",[2]; [4],105 nm
same,Original size distribution type (DLS curve),"[2]; before storage, IAJD 4.0 mg/mL + Luc-mRNA 0.1 mg/mL, acetate buffer pH 4.00",(B)
same,PDI,[3]; [5],0.278
same,"Size (d, nm)",[3]; [5],104 nm
same,PDI,[3]; [6],0.278
same,"Size (d, nm)",[3]; [6],104 nm
